Measurements as given in patent publication EP0983055B1, “COMPOSITION COMPRISING AN AMINO ACID N-UNDECYLENOYL; APPLICATION IN COSMETICS” (SOCIETE D'EXPLOITATION DE PRODUITS POUR LES INDUSTRIES …, priority 1997, dated 1999).

Key:
Aspergillus Niger = test: MIC (CMI) determination in liquid medium; type: cell-based; conditions: pH5, substance alone, 72 h incubation at 30°C
Method: (§1) On a déterminé les CMI en milieu liquide, avec un temps d'incubation de 72 heures à 30°C, à […] (bouillon Trypticase soja tamponné), du Lipacide™ UG seul, du conservateur testé seul, ainsi que du mélange des deux produits La comparaison des résultats consignés dans les tableaux suivants fait apparaître nettement une synergie anti-microbienne qui autorise ainsi une réduction de la concentration nécessaires en conservateurs chimique dans les compositions.
(§2) La composition A est diluée dans l'eau pour obtenir la composition A2 contenant 0,05 % en poids d'undécylènoyl glycine et 0,05 % en poids d'octanoyl glycine et la composition A3 contenant 0,125 % en poids d'undécylènoyl glycine et 0,125 % en poids d'octanoyl glycine.
(§3) On obtient les résultats suivants (CMI à pH5).

Staph. aureus = test: MIC (CMI) determination in liquid medium; type: cell-based; conditions: pH5, substance alone, 72 h incubation at 30°C
Method: as §1, §2, §3

Structure (SMILES)	CMI (Aspergillus Niger)	CMI (Staph. aureus)
CCCCCCCC(=O)NCC(=O)O [octanoyl glycine]	2,5%	0,025%
C=CCCCCCCCCC(=O)NCC(=O)O [undécylènoyl glycine]	0,25%	0,01%
